From US8841422B2, “Human androgen receptor alternative splice variants” (University of Maryland, Baltimore, priority 2008, dated 2014)

Columns and labels:
AR = type: cell-based, human; conditions: LNCaP cells
Source text: (H) LNCaP cells were infected with (+) or without (−) the lentivirus encoding AR shRNA (shAR) as described previously. At 6 hr postinfection, the cells were transfected with ARR2-Luciferase reporter along with AR3 or the codon-switched wild-type AR expressing vector (ARcs).
Briefly, cells grown in 24-well plates were transiently transfected with different plasmid constructs using LipofectAM1NE 2000 (Invitrogen) for LNCaP cells and FuGENE HI) (Roche) for COS-1 cells following the manufacturer's instruction. […] Dual-Luciferase assays were performed according to the protocol from the manufacturer (Promega).

80 kD ARs = assay: Western blot with anti-AR after AR shRNAs in CWR-R1 cells; type: cell-based, human; conditions: 48 hr post infection
Source text: FIGS. 1A-H: Cloning of novel alternative splice AR isoforms. (A) Presence of the short forms of AR in prostate cancer cells. Total cell lysates of different prostate cancer cells were blotted with anti-AR (441) antibody (upper) and anti-Actin antibody (lower). (B) Selective knockdown of AR long/short forms by AR shRNAs. CWR-R1 cells were infected with the lentivirus encoding AR shRNAa, AR shRNAb, and AR shRNAc (shARa, shARb and shARc) targeting different exons of AR as indicated in (D). At 48 hr post infection, the total cell lysates were subjected to western blot with anti-AR antibody. The same blot was stained with Coomassie Blue to show the protein loading (right panel). (C) Presence of AR isoform transcripts in CWR-R1 cells. Total RNA was isolated from CWR-R1 cells and reverse transcribed. The primer derived from AR shRNAc sequence was used to perform a rapid amplification of cDNA 3′-end (3′-RACE) with the RACE oligo-dT primer or a control primer. (D) Schematic structure of the human AR splice variants. The hatched cassettes stand for the cryptic exons. Solid thick lines represent the transcribed sequences. (E) Expression of AR isoforms in prostate cancer cells. The relative expression levels of AR, AR3, AR4 and AR5 were quantified using real-time PCR with the isoform specific primer pair sets described in Methods (left panel). The AR level in LNCaP cells was arbitrarily set as 1. The expression levels of AR3 in LNCaP and C-8 1 cells were further plotted with a higher resolution. *p<0.05 (right panel). (F) Transcriptional activity of AR isoforms. COS-1 cells were transfected with ARR.2-luciferase reporter gene together with AR, AR3, AR4 and AR5 expression vector. At 24 hr posttransfection, the cells were lysed and the luciferase activity was measured. The data were expressed as relative promoter activity, the changes of luciferase activity relative to the untreated control (arbitrarily set as 1). (G) COS-1 cells were transfected with ARR2-Luciferase reporter along with increasing doses of AR3 or AR expressing vector. […]

22Rv1 xenograft = assay: In vivo tumor growth in xenograft model, castrated male nude mice; conditions: 22Rv1 cells infected 48 hr before s.c. injection
Method: (§1) FIGS. 4A-D: AR3 promotes androgen-independent growth of prostate cancer cells. LNCaP cells were infected with lentivirus encoding AR3 expression construct (AR3) or the control vector. After 2-week culture in androgen-depleted condition, the cells were visualized by Coomassie Blue staining (A). At 48 hr post infection, the cells were injected into the castrated SCID mice and the growth of the tumor cells were monitored weekly. The result represent the mean tumor volume±SE (n=5 mice/group), *p<0.05 Inset, Western blots of anti-AR3 and anti-AR of the LNCaP xenograft tumor lysates (B). CWR-R1 and 22Rv1 cells were infected with lentivirus encoding AR3 shRNA-1 (shAR3) or control shRNA (shCon). After 2 weeks culture in androgen-depleted condition, the cells were visualized by Coomassie Blue staining (C). At 48 hr postinfection, the cells were injected into the castrated male nude mice. The growth of the tumors was monitored weekly. The result represents the mean tumor volume±SE (n=5 mice/group), *p<0.05 (D). […]
(§2) In vitro cell growth assay and In vivo tumor growth in xenograft models LNCaP, CWR-R1 and 22Rv1 cells were infected with the lentiviruses bearing the shRNA sequences and the AR3 expression constructs as indicated. […] The volumes of the tumors formed on both sides were measured weekly and calculated by using the formula: 0.5236×r1^2×r2 (r1<r2). […]

CWR-R1 xenograft = assay: as above; conditions: CWR-R1 cells infected 48 hr before s.c. injection
Method: as §1, §2

CWR-R1 cells = assay: In vitro cell growth assay in androgen-depleted condition; type: cell-based, human; conditions: CWR-R1, 2 weeks culture, Coomassie Blue staining
Method: as §1, §2

22Rv1 cells = assay: as above; type: cell-based, human; conditions: 22Rv1, 2 weeks culture, Coomassie Blue staining
Method: as §1, §2

Row | Molecule | activity of endogenous AR or codon-switched wild-type AR (luciferase reporter) (AR) | knock-down of 80 kD ARs (80 kD ARs) | other results
1 | C[C@]12CCC(=O)C[C@@H]1CC[C@@H]1[C@@H]2CC[C@]2(C)[C@@H](O)CC[C@@H]12 [DHT] | induced |  | 
2 | CC(O)(CS(=O)(=O)c1ccc(F)cc1)C(=O)Nc1ccc(C#N)c(C(F)(F)F)c1 (stereo not drawn) [casodex] | blocked |  | 
3 | shARa: shRNA specific for human AR gene, lentiviral pLKO.1-puro vector from Sigma, targeting Exon 8, SEQ ID NO: 10 (CCGGCCTGCTAATCAAGTCACACATCTCGAGATGTGTGACTTGATTAGCAGGTTTTT) |  | barely affected | 
4 | shARb: shRNA specific for human AR gene, lentiviral pLKO.1-puro vector from Sigma, targeting Exon 5, SEQ ID NO: 11 (CCGGCACCAATGTCAACTCCAGGATCTCGAGATCCTGGAGTTGACATTGGTGTTTTT) |  | barely affected | 
5 | shARc: shRNA specific for human AR gene, lentiviral pLKO.1-puro vector from Sigma, targeting the 1st Exon, SEQ ID NO: 12 (CCGGCGCGACTACTACAACTTTCCACTCGAGTGGAAAGTTGTAGTAGTCGCGUTTT) |  | efficiently knocked down | 
6 | shAR3-1: lentivirus encoded shRNA specific for AR3 isoform, made using SEQ ID NOS: 13 and 14 (nucleic acid) chain 1: TGTAATAGTGGTTACCACTCTTCAAGAGAGAGTGGTAACCACTATTACTTTTTTTTC chain 2: TCGAGAAAAAAAAGTAATAGTGGTTACCACTCTCTCTTGAAGAGTGGTAACCACTATTACA |  |  | tumor growth in castrated nude mice (22Rv1 xenograft): attenuated their growth; tumor growth in castrated nude mice (CWR-R1 xenograft): attenuated their growth; cell growth in androgen-depleted medium (CWR-R1 cells): attenuated their growth; cell growth in androgen-depleted medium (22Rv1 cells): attenuated their growth
